Results taken from ChEMBL document CHEMBL1126580, “Enantiospecific syntheses of alpha-(fluoromethyl)tryptophan analogues: interactions with tryptophan hydroxylase and aromatic L-amino acid decarboxylase” (J Med Chem, 1993).

Target: T1, Aromatic-L-amino-acid decarboxylase (Mus musculus) (UniProt O88533)
T1 sequence (whole entry): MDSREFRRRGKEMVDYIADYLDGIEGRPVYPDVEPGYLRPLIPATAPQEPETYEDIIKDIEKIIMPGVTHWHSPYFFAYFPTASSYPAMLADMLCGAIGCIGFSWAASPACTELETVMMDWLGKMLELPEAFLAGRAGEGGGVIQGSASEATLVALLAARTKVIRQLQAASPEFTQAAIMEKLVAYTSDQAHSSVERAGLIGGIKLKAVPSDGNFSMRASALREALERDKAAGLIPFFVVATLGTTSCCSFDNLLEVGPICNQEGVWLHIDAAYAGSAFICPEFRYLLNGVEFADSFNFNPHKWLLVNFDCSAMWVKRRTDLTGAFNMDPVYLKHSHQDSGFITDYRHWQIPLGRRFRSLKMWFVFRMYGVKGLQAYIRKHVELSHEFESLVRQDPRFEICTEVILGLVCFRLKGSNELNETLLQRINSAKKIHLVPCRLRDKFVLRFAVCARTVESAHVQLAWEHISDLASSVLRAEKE
Assay: First-order inactivation rate constant (k2) was evaluated as an inhibitor of murine liver aromatic L-amino acid decarboxylase (AADC)

With `N[C@@](CF)(Cc1c[nH]c2ccc(O)cc12)C(=O)O` as the molecule, how does the k2 read?
The k2 was 2.26 min⁻¹.
